From ChEMBL document CHEMBL4152314, “Symmetrical and unsymmetrical substituted 2,5-diarylidene cyclohexanones as anti-parasitic compounds” (Eur J Med Chem, 2018)

Key:
Trypanosoma cruzi [1] = assay: Antiparasitic activity against epimastigote form of Trypanosoma cruzi Y assessed as parasite growth inhibition after 96 hrs by Neubauer hemocytometer; type: functional, organism-based
Trypanosoma cruzi [2] = assay: Antiparasitic activity against trypomastigote form of Trypanosoma cruzi assessed as parasite lysis after 24 hrs by Pizzi-Brener method; type: functional, organism-based
Leishmania amazonensis = assay: Antiparasitic activity against promastigote form of Leishmania amazonensis MHOM/BR/Josefa assessed as parasite growth inhibition after 72 hrs by Neubauer hemocytometer; type: functional, organism-based
[3] = Cytotoxicity against African green monkey Vero cells assessed as growth inhibition; type: cell-based; settings: chlorocebus sabaeus
[4] = Selectivity index, ratio of CC50 for African green monkey Vero cells to EC50 for trypomastigote form of Trypanosoma cruzi; type: toxicity; settings: read-out: Ratio CC50/EC50
[5] = Selectivity index, ratio of CC50 for African green monkey Vero cells to IC50 for promastigote form of Leishmania amazonensis MHOM/BR/Josefa; type: toxicity; settings: read-out: Ratio CC50/IC50
[6] = Selectivity index, ratio of CC50 for African green monkey Vero cells to IC50 for epimastigote form of Trypanosoma cruzi Y; type: toxicity; settings: read-out: Ratio CC50/IC50

O=C1/C(=C/c2ccc3c(c2)OCO3)CCC/C1=C\c1ccc2c(c1)OCO2
IC50 (Trypanosoma cruzi [1]): > 100 µM | EC50 (Trypanosoma cruzi [2]): 78 µM | IC50 (Leishmania amazonensis): 22 µM | CC50 [3]: 257 µM | selectivity ratio [4]: 3.3 | selectivity ratio [5]: 11.7

COc1ccc(/C=C2\CCC/C(=C\c3ccc([N+](=O)[O-])cc3)C2=O)cc1
IC50 (Trypanosoma cruzi [1]): > 100 µM | EC50 (Trypanosoma cruzi [2]): > 100 µM | IC50 (Leishmania amazonensis): > 100 µM | CC50 [3]: 435 µM

COc1ccc(/C=C2\CCCCC2=O)cc1
IC50 (Trypanosoma cruzi [1]): 54.8 µM | EC50 (Trypanosoma cruzi [2]): > 100 µM | IC50 (Leishmania amazonensis): 54 µM | CC50 [3]: 194 µM | selectivity ratio [6]: 3.5 | selectivity ratio [5]: 3.6

COc1cccc(/C=C2\CCC/C(=C\c3ccc([N+](=O)[O-])cc3)C2=O)c1OC
IC50 (Trypanosoma cruzi [1]): 33.3 µM | EC50 (Trypanosoma cruzi [2]): 27.7 µM | IC50 (Leishmania amazonensis): 3.9 µM | CC50 [3]: < 10 µM

COc1cc(/C=C2\CCC/C(=C\c3cc(OC)c(OC)c(OC)c3)C2=O)cc(OC)c1OC
IC50 (Trypanosoma cruzi [1]): 9.5 µM | EC50 (Trypanosoma cruzi [2]): 69.5 µM | IC50 (Leishmania amazonensis): 17 µM | CC50 [3]: 155 µM | selectivity ratio [6]: 16.3 | selectivity ratio [4]: 2.2 | selectivity ratio [5]: 9.1

COc1ccc(/C=C2\CCC/C(=C\c3c(Cl)cccc3Cl)C2=O)cc1
IC50 (Trypanosoma cruzi [1]): 20.5 µM | EC50 (Trypanosoma cruzi [2]): 54.2 µM | IC50 (Leishmania amazonensis): 5.2 µM | CC50 [3]: 232 µM | selectivity ratio [6]: 11.3 | selectivity ratio [4]: 4.3 | selectivity ratio [5]: 44.6

COc1cccc(/C=C2\CCC/C(=C\c3cccc(Br)c3)C2=O)c1OC
IC50 (Trypanosoma cruzi [1]): 33 µM | EC50 (Trypanosoma cruzi [2]): 72 µM | IC50 (Leishmania amazonensis): 19.8 µM | CC50 [3]: 31.5 µM | selectivity ratio [6]: 1 | selectivity ratio [4]: 0.4 | selectivity ratio [5]: 1.6

COc1cccc(/C=C2\CCC/C(=C\C(C)Cc3ccc4c(c3)OCO4)C2=O)c1OC (stereo not drawn)
IC50 (Trypanosoma cruzi [1]): 26.1 µM | EC50 (Trypanosoma cruzi [2]): 82 µM | IC50 (Leishmania amazonensis): 10 µM | CC50 [3]: 178 µM | selectivity ratio [6]: 6.8 | selectivity ratio [4]: 2.2 | selectivity ratio [5]: 17.8

COc1cccc(/C=C2\CCCCC2=O)c1OC
IC50 (Trypanosoma cruzi [1]): > 100 µM | EC50 (Trypanosoma cruzi [2]): > 100 µM | IC50 (Leishmania amazonensis): > 100 µM | CC50 [3]: 720 µM

COc1ccc(/C=C2\CCC/C(=C\c3ccccc3)C2=O)cc1
IC50 (Trypanosoma cruzi [1]): 20.6 µM | EC50 (Trypanosoma cruzi [2]): > 100 µM | IC50 (Leishmania amazonensis): 11.8 µM | CC50 [3]: 291 µM | selectivity ratio [6]: 14.1 | selectivity ratio [5]: 24.6

COc1ccc(/C=C2\CCC/C(=C\c3ccc(F)cc3)C2=O)cc1
IC50 (Trypanosoma cruzi [1]): 21 µM | EC50 (Trypanosoma cruzi [2]): > 100 µM | IC50 (Leishmania amazonensis): 10.8 µM | CC50 [3]: 378 µM | selectivity ratio [6]: 18 | selectivity ratio [5]: 35

COc1cccc(/C=C2\CCC/C(=C\c3cc(OC)c(OC)c(OC)c3)C2=O)c1OC
IC50 (Trypanosoma cruzi [1]): 3 µM | EC50 (Trypanosoma cruzi [2]): 30.2 µM | IC50 (Leishmania amazonensis): 2.6 µM | CC50 [3]: 29.3 µM | selectivity ratio [6]: 9.8 | selectivity ratio [4]: 1 | selectivity ratio [5]: 11.3

COc1ccc(/C=C2\CCC/C(=C\c3cccc(OC)c3OC)C2=O)cc1
IC50 (Trypanosoma cruzi [1]): 5.2 µM | EC50 (Trypanosoma cruzi [2]): 27.4 µM | IC50 (Leishmania amazonensis): 8.9 µM | CC50 [3]: 401 µM | selectivity ratio [6]: 77.2 | selectivity ratio [4]: 14.6 | selectivity ratio [5]: 45.1

COc1cccc(/C=C2\CCC/C(=C\c3ccccc3)C2=O)c1OC
IC50 (Trypanosoma cruzi [1]): 25.8 µM | EC50 (Trypanosoma cruzi [2]): 60 µM | IC50 (Leishmania amazonensis): 16.7 µM | CC50 [3]: 33.5 µM | selectivity ratio [6]: 1.3 | selectivity ratio [4]: 0.6 | selectivity ratio [5]: 2

COc1ccc(/C=C2\CCC/C(=C\c3ccc(Br)cc3)C2=O)cc1
IC50 (Trypanosoma cruzi [1]): 55 µM | EC50 (Trypanosoma cruzi [2]): > 100 µM | IC50 (Leishmania amazonensis): 17.3 µM | CC50 [3]: 250 µM | selectivity ratio [6]: 4.5 | selectivity ratio [5]: 14.5

O=C1/C(=C/c2c(Cl)cccc2Cl)CCC/C1=C\c1c(Cl)cccc1Cl
IC50 (Trypanosoma cruzi [1]): 83.9 µM | EC50 (Trypanosoma cruzi [2]): 93.5 µM | IC50 (Leishmania amazonensis): 4.9 µM | CC50 [3]: 574 µM | selectivity ratio [6]: 6.8 | selectivity ratio [4]: 6.1 | selectivity ratio [5]: 117

COc1ccc(/C=C2\CCC/C(=C\c3ccc(Cl)cc3)C2=O)cc1
IC50 (Trypanosoma cruzi [1]): 21.6 µM | EC50 (Trypanosoma cruzi [2]): > 100 µM | IC50 (Leishmania amazonensis): 17.8 µM | CC50 [3]: 401 µM | selectivity ratio [6]: 18.6 | selectivity ratio [5]: 22.5

COc1ccc(/C=C2\CCC/C(=C\c3cccc(OC)c3OC)C2=O)cc1OC
IC50 (Trypanosoma cruzi [1]): 28.5 µM | EC50 (Trypanosoma cruzi [2]): 23.8 µM | IC50 (Leishmania amazonensis): 4.5 µM | CC50 [3]: 36.1 µM | selectivity ratio [6]: 1.3 | selectivity ratio [4]: 1.5 | selectivity ratio [5]: 8

COc1cccc(/C=C2\CCC/C(=C\c3ccc(F)cc3)C2=O)c1OC
IC50 (Trypanosoma cruzi [1]): 24.4 µM | EC50 (Trypanosoma cruzi [2]): 70.2 µM | IC50 (Leishmania amazonensis): 4.7 µM | CC50 [3]: 33.2 µM | selectivity ratio [6]: 1.4 | selectivity ratio [4]: 0.5 | selectivity ratio [5]: 7.1

COc1ccc(/C=C2\CCC/C(=C\c3ccc(N(C)C)cc3)C2=O)cc1
IC50 (Trypanosoma cruzi [1]): > 100 µM | EC50 (Trypanosoma cruzi [2]): > 100 µM | IC50 (Leishmania amazonensis): 91 µM | CC50 [3]: 392 µM | selectivity ratio [5]: 4.3

COc1cccc(/C=C2\CCC/C(=C\c3ccc(Br)cc3)C2=O)c1OC
IC50 (Trypanosoma cruzi [1]): 35 µM | EC50 (Trypanosoma cruzi [2]): 77 µM | IC50 (Leishmania amazonensis): 20.1 µM | CC50 [3]: 31.5 µM | selectivity ratio [6]: 0.9 | selectivity ratio [4]: 0.4 | selectivity ratio [5]: 1.6

COc1cc([N+](=O)[O-])ccc1/C=C1\CCC/C(=C\c2cccc(OC)c2OC)C1=O
IC50 (Trypanosoma cruzi [1]): 26.5 µM | EC50 (Trypanosoma cruzi [2]): > 100 µM | IC50 (Leishmania amazonensis): 4.8 µM | CC50 [3]: 120 µM | selectivity ratio [6]: 4.5 | selectivity ratio [5]: 25

COc1ccc(/C=C2\CCC/C(=C\c3ccccc3Cl)C2=O)cc1
IC50 (Trypanosoma cruzi [1]): 26.6 µM | EC50 (Trypanosoma cruzi [2]): > 100 µM | IC50 (Leishmania amazonensis): 13 µM | CC50 [3]: 238 µM | selectivity ratio [6]: 8.9 | selectivity ratio [5]: 18.3

COc1ccc(/C=C2\CCC/C(=C\c3cccc(Br)c3)C2=O)cc1
IC50 (Trypanosoma cruzi [1]): 20.2 µM | EC50 (Trypanosoma cruzi [2]): > 100 µM | IC50 (Leishmania amazonensis): 5.7 µM | CC50 [3]: 30 µM | selectivity ratio [6]: 1.5 | selectivity ratio [5]: 5.3

COc1ccc(/C=C2\CCC/C(=C\c3ccccc3F)C2=O)cc1
IC50 (Trypanosoma cruzi [1]): 13.6 µM | EC50 (Trypanosoma cruzi [2]): > 100 µM | IC50 (Leishmania amazonensis): 9 µM | CC50 [3]: 270 µM | selectivity ratio [6]: 19.8 | selectivity ratio [5]: 29.9

COc1cccc(/C=C2\CCC/C(=C\c3c(Cl)cccc3Cl)C2=O)c1OC
IC50 (Trypanosoma cruzi [1]): 26.2 µM | EC50 (Trypanosoma cruzi [2]): 35 µM | IC50 (Leishmania amazonensis): 3.7 µM | CC50 [3]: 160 µM | selectivity ratio [6]: 6.1 | selectivity ratio [4]: 4.6 | selectivity ratio [5]: 43.3

O=C1/C(=C/c2cccc(Br)c2)CCC/C1=C\c1cccc(Br)c1
IC50 (Trypanosoma cruzi [1]): 33.3 µM | EC50 (Trypanosoma cruzi [2]): 63.2 µM | IC50 (Leishmania amazonensis): 2.3 µM | CC50 [3]: 35.9 µM | selectivity ratio [6]: 1.1 | selectivity ratio [4]: 0.6 | selectivity ratio [5]: 15.6

O=C1/C(=C/c2ccccc2Cl)CCC/C1=C\c1ccccc1Cl
IC50 (Trypanosoma cruzi [1]): 27.8 µM | EC50 (Trypanosoma cruzi [2]): 36.2 µM | IC50 (Leishmania amazonensis): 4.6 µM | CC50 [3]: 30.6 µM | selectivity ratio [6]: 1.1 | selectivity ratio [4]: 0.8 | selectivity ratio [5]: 6.7

COc1ccc(/C=C2\CCC/C(=C\c3ccc(OC)cc3)C2=O)cc1
IC50 (Trypanosoma cruzi [1]): 63.6 µM | EC50 (Trypanosoma cruzi [2]): > 100 µM | IC50 (Leishmania amazonensis): 33.3 µM | CC50 [3]: 178 µM | selectivity ratio [6]: 2.8 | selectivity ratio [5]: 5.3

O=C(Cn1ccnc1[N+](=O)[O-])NCc1ccccc1 [BENZNIDAZOLE]
IC50 (Trypanosoma cruzi [1]): 6.5 µM

COc1cc(/C=C/C(=O)CC(=O)/C=C/c2ccc(O)c(OC)c2)ccc1O [CURCUMIN]
IC50 (Trypanosoma cruzi [1]): 67.3 µM | EC50 (Trypanosoma cruzi [2]): 15 µM | IC50 (Leishmania amazonensis): > 100 µM | CC50 [3]: 36.8 µM | selectivity ratio [6]: 0.5 | selectivity ratio [4]: 2.5
